In patent US6703362B1, “Random peptides that bind to gastro-intestinal tract (GIT) transport receptors and related methods” (Cytogen Corporation, priority 1997, dated 2004):
Peptide text beside a SMILES is read from it. * marks the point of attachment. Dansyl = CN(C)c1cccc2c(S(=O)(=O)*)cccc12

Tested on: P100 membrane fractions derived from Caco-2 cells
Experiment: Dansylated peptide ELISA: relative binding of PAX2 and HAX42 peptides to P100 (ratio to ZElan021)
Settings: ratio to ZElan021 = 1.00
Method: The peptides and proteins were analyzed by a dansylated peptide ELISA method in which 96 well plates were coated overnight at 4° C. with 100 μl/well coating protein (normally 100 μg/ml P100 membrane fraction) in 0.05M carbonate buffer pH9.6. Nonspecific binding was blocked using 200 μl/well, 2% Marvel/PBS for 2 hours at 37° C. prior to incubation with dansylated peptides. The plates were washed three times with PBS/0.05% Tween 20 and after each subsequent incubation step. […] A buffer blank control was included to ensure that background binding to plastic was not due to the antibodies used in the assay system. […] The plates were then incubated with an anti-mouse X-HRP conjugated antibody (Southern Biotech 1060-05) at a 1:10,000 dilution in blocking solution, 100 μl/well for 1 hour at room temperature. Plates were developed using 75 μl/well Bionostics TMB substrate and incubated for approximately 10 minutes. The developing reaction was stopped using Bionostics Red Stop solution (25 μl/well), and the optical density of the plates was read at 650nm.

[1] = PAX2 peptides, first 20 μg/ml column
[2] = PAX2 peptides, first 50 μg/ml column
[3] = PAX2 peptides, second 20 μg/ml column
[4] = PAX2 peptides, second 50 μg/ml column
[5] = HAX42 peptides, first 50 μg/ml column
[6] = HAX42 peptides, second 50 μg/ml column

SMILES | Binding value at 20 μg/ml [1] | Binding value at 50 μg/ml [2] | Binding value at 20 μg/ml [3] | Binding value at 50 μg/ml [4] | Binding value at 20 μg/ml (HAX42 peptides) | Binding value at 50 μg/ml [5] | Binding value at 50 μg/ml [6]
C[C@H](NC(=O)[C@H](CC(N)=O)NC(=O)[C@@H](NC(=O)[C@@H](N)CCCCNS(=O)(=O)c1cccc2c(N(C)C)cccc12)[C@@H](C)O)C(=O)N[C@@H](CCCCN)C(=O)N[C@@H](Cc1c[nH]cn1)C(=O)N[C@@H](CO)C(=O)N[C@@H](CO)C(=O)N[C@@H](Cc1c[nH]cn1)C(=O)N[C@@H](CC(N)=O)C(N)=O [ZElan055] (H-K(Dansyl)TNAKHSSHN-NH2) | 0.99 | 1.10 | 0.73 | 0.59 | – | – | –
CC(C)C[C@H](NC(=O)[C@H](CCCNC(=N)N)NC(=O)[C@H](CCCNC(=N)N)NC(=O)[C@@H](N)CCCCNS(=O)(=O)c1cccc2c(N(C)C)cccc12)C(=O)N[C@@H](CCCNC(=N)N)C(=O)N[C@H](C(=O)N[C@@H](CCCNC(=N)N)C(=O)N[C@@H](CO)C(=O)N[C@@H](CCCNC(=N)N)C(=O)N1CCC[C@H]1C(=O)N[C@@H](CC(N)=O)C(N)=O)[C@@H](C)O [ZElan056] (H-K(Dansyl)RRLRTRSRPN-NH2) | 0.00 | 0.21 | 0.16 | 0.21 | – | – | –
CC(C)C[C@H](NC(=O)[C@H](CCCNC(=N)N)NC(=O)[C@H](CCCNC(=N)N)NC(=O)[C@@H](N)CCCCNS(=O)(=O)c1cccc2c(N(C)C)cccc12)C(=O)N[C@@H](CCCNC(=N)N)C(=O)N[C@H](C(=O)N[C@@H](CCCNC(=N)N)C(=O)N[C@@H](CO)C(=O)N[C@@H](CCCNC(=N)N)C(N)=O)[C@@H](C)O [ZElan057] (H-K(Dansyl)RRLRTRSR-NH2) | 0.08 | 0.56 | – | 0.25 | – | – | –
CC(C)C[C@H](NC(=O)[C@H](CCCNC(=N)N)NC(=O)[C@H](CCCNC(=N)N)NC(=O)[C@@H](N)CCCCNS(=O)(=O)c1cccc2c(N(C)C)cccc12)C(=O)N[C@@H](CCCNC(=N)N)C(=O)N[C@H](C(=O)N[C@@H](CCCNC(=N)N)C(N)=O)[C@@H](C)O [ZElan058, H2N—K(dns)RRLRTR—CONH2] (H-K(Dansyl)RRLRTR-NH2) | 0.05 | 0.47 | – | 0.16 | – | – | –
CC(C)C[C@H](NC(=O)[C@H](C)NC(=O)[C@H](Cc1c[nH]cn1)NC(=O)[C@H](CC(=O)O)NC(=O)[C@H](CO)NC(=O)[C@@H](N)CCCCNS(=O)(=O)c1cccc2c(N(C)C)cccc12)C(=O)NCC(=O)N[C@H](C(=O)N[C@@H](CC(N)=O)C(=O)N[C@@H](CC(C)C)C(=O)N[C@@H](CCCNC(=N)N)C(=O)N[C@@H](CO)C(=O)N[C@@H](CC(=O)O)C(=O)N[C@@H](CC(N)=O)C(=O)N[C@@H](C)C(=O)N[C@@H](CCCCN)C(=O)N[C@@H](CCC(=O)O)C(=O)N1CCC[C@H]1C(=O)NCC(=O)N[C@@H](CC(=O)O)C(=O)N[C@@H](Cc1ccc(O)cc1)C(=O)N[C@@H](CC(N)=O)C(=O)N[C@@H](CS)C(=O)N[C@@H](CS)C(=O)NCC(=O)N[C@@H](CC(N)=O)C(=O)NCC(N)=O)[C@@H](C)O [ZElan060] (H-K(Dansyl)SDHALGTNLRSDNAKEPGDYNCCGNG-NH2) | – | – | – | – | 0.44 | 0.56 | 0.43
CC[C@H](C)[C@H](NC(=O)[C@H](C)NC(=O)[C@H](CO)NC(=O)[C@@H]1CCCN1C(=O)[C@H](CCCNC(=N)N)NC(=O)[C@H](CCCNC(=N)N)NC(=O)[C@H](CCCNC(=N)N)NC(=O)[C@H](CC(N)=O)NC(=O)[C@H](Cc1ccccc1)NC(=O)[C@@H](NC(=O)[C@H](CCCCN)NC(=O)[C@H](CCCNC(=N)N)NC(=O)CNC(=O)[C@@H](NC(=O)[C@H](CO)NC(=O)[C@H](CC(N)=O)NC(=O)CNC(=O)[C@H](CC(N)=O)NC(=O)CNC(=O)[C@H](CS)NC(=O)[C@H](CS)NC(=O)[C@H](CC(N)=O)NC(=O)[C@H](Cc1ccc(O)cc1)NC(=O)[C@H](CC(=O)O)NC(=O)CNC(=O)[C@@H](N)CCCCNS(=O)(=O)c1cccc2c(N(C)C)cccc12)[C@@H](C)O)C(C)C)C(=O)N1CCC[C@H]1C(=O)N[C@H](C(N)=O)[C@@H](C)O [ZElan061] (H-K(Dansyl)GDYNCCGNGNSTGRKVFNRRRPSAIPT-NH2) | – | – | – | – | 0.20 | 0.60 | 0.38
CC(C)C[C@H](NC(=O)[C@H](C)NC(=O)[C@H](Cc1c[nH]cn1)NC(=O)[C@H](CC(=O)O)NC(=O)[C@H](CO)NC(=O)[C@@H](N)CCCCNS(=O)(=O)c1cccc2c(N(C)C)cccc12)C(=O)NCC(=O)N[C@H](C(=O)N[C@@H](CC(N)=O)C(=O)N[C@@H](CC(C)C)C(=O)N[C@@H](CCCNC(=N)N)C(=O)N[C@@H](CO)C(=O)N[C@@H](CC(=O)O)C(=O)N[C@@H](CC(N)=O)C(=O)N[C@@H](C)C(=O)N[C@@H](CCCCN)C(=O)N[C@@H](CCC(=O)O)C(=O)N1CCC[C@H]1C(=O)NCC(N)=O)[C@@H](C)O [ZElan062] (H-K(Dansyl)SDHALGTNLRSDNAKEPG-NH2) | – | – | – | – | 0.11 | 0.42 | 0.34
CC(C)[C@H](NC(=O)[C@H](CCCCN)NC(=O)[C@H](CCCNC(=N)N)NC(=O)[C@@H](N)CCCCNS(=O)(=O)c1cccc2c(N(C)C)cccc12)C(=O)N[C@@H](Cc1ccccc1)C(=O)N[C@@H](CC(N)=O)C(=O)N[C@@H](CCCNC(=N)N)C(=O)N[C@@H](CCCNC(=N)N)C(=O)N[C@@H](CCCNC(=N)N)C(=O)N1CCC[C@H]1C(=O)N[C@@H](CO)C(N)=O [ZElan065] (H-K(Dansyl)RKVFNRRRPS-NH2) | – | – | – | – | 0.00 | 0.54 | 0.30
CN(C)c1cccc2c(S(=O)(=O)NCCCC[C@H](N)C(=O)N[C@@H](CC(N)=O)C(=O)N[C@@H](CCCNC(=N)N)C(=O)N[C@@H](CCCNC(=N)N)C(=O)N[C@@H](CCCNC(=N)N)C(=O)N3CCC[C@H]3C(=O)N[C@@H](CO)C(N)=O)cccc12 [ZElan067, H2N—K(dns)NRRRPS—CONH2] (H-K(Dansyl)NRRRPS-NH2) | – | – | – | – | 0.08 | 0.52 | 0.40
CC(C)C[C@H](NC(=O)[C@H](C)NC(=O)[C@H](Cc1c[nH]cn1)NC(=O)[C@H](CC(=O)O)NC(=O)[C@H](CO)NC(=O)[C@@H](N)CCCCNS(=O)(=O)c1cccc2c(N(C)C)cccc12)C(=O)NCC(=O)N[C@H](C(=O)N[C@@H](CC(N)=O)C(=O)N[C@@H](CC(C)C)C(=O)N[C@@H](CCCNC(=N)N)C(=O)N[C@@H](CO)C(=O)N[C@@H](CC(=O)O)C(=O)N[C@@H](CC(N)=O)C(=O)N[C@@H](C)C(=O)N[C@@H](CCCCN)C(=O)N[C@@H](CCC(=O)O)C(=O)N1CCC[C@H]1C(=O)NCC(=O)N[C@@H](CC(=O)O)C(=O)N[C@@H](Cc1ccc(O)cc1)C(=O)N[C@@H](CC(N)=O)C(=O)N[C@@H](CS)C(=O)N[C@@H](CS)C(=O)NCC(=O)N[C@@H](CC(N)=O)C(=O)NCC(=O)N[C@@H](CC(N)=O)C(=O)N[C@@H](CO)C(=O)N[C@H](C(N)=O)[C@@H](C)O)[C@@H](C)O [ZElan070] (H-K(Dansyl)SDHALGTNLRSDNAKEPGDYNCCGNGNST-NH2) | – | – | – | – | 0.59 | 0.97 | 0.39
